Experiments:
Type in all cases: cell-based
E. coli [1] = experiment: PCR of extracted DNA with 16SrDNA specific primers, with vs without antibiotic (no EMA); conditions: ampicillin-susceptible E. coli, 1×10^6 cells/mL, ampicillin 100 μg/mL, 37° C.
Procedure: (§1) Overnight E. coli culture that was susceptible to ampicillin was further sub-cultured for 2-3 hours to log phase. Cells in this culture were quantified using OD600nm values. The culture was diluted to 1×10^6 cells/mL and 10 mL was aliquoted into two, 50 ml conical flask. Ampicillin at 100 μg/mL was added to one of the conical flasks. The two flasks, with and without antibiotic were incubated at 37° C. and two, 50 μL aliquots were taken from each flask at regular intervals (0, 30, 40 and 60 mins). Nucleic acid (NA) was extracted from all sample aliquots using the VERSANT® brand Sample preparation 1.0 reagent kit. The NA samples were then subjected to PCR and RT-PCR (reverse transcription-PCR) using 16SrDNA specific primers (each DNA extracted sample was split into two replicates for PCR). […] In this experiment, all RNA samples were treated with DNAse for 60 min at 37° C. before RT-PCR. In a subsequent experiment it was shown that a treatment as low as 5 minutes was also sufficient to eliminate DNA from the sample.
Overnight E. coli culture that was susceptible to ampicillin was further sub-cultured for 2-3 hours to log phase. Cells in this culture was quantified using OD600nm values. The culture was diluted to 1×10^6 cells/mL and 10 mL was aliquoted into two, 50 ml conical flasks. Ampicillin at 100 μg/mL was added to one of the conical flasks. […]

E. coli [2] = experiment: RT-PCR of extracted RNA with 16SrDNA specific primers, with vs without antibiotic; conditions: ampicillin-susceptible E. coli, 1×10^6 cells/mL, ampicillin 100 μg/mL, 37° C., 60 minutes; FIG. 10 table 1
Procedure: as §1

E. coli [3] = experiment: EMA (ethidium monoazide) + blue light treatment followed by PCR with 16SrDNA specific primers, with vs without antibiotic
Procedure: FIG. 3 illustrates a method of determining antibiotic susceptibility of micro-organisms, according to yet another embodiment. At step 301, the sample comprising the micro-organism is received. At step 302, at least one first portion of the sample is incubated with an antibiotic and at least one second portion of the sample is incubated with no antibiotic. The micro-organisms in the sample are required to be grown/cultured or incubated for the shortest possible time in which discernible nucleic acid differences can be measured. For example, the micro-organisms are cultured or incubated for a range of at least one to five doubling cycles. Antibiotics which are cell wall synthesis inhibitors (beta lactam) and cell membrane inhibitors (colistin) affect the integrity of cell wall of the micro-organisms. This facilitates determination of antibiotic susceptibility. Once the doubling cycle range is met for the at least one first and second portion of the sample, at step 303, an intercalating dye is introduced to the at least one first portion of the sample and the at least one second portion of the sample. […]
Overnight E. coli culture that was susceptible to ampicillin was further sub-cultured for 2-3 hours to log phase. Cells in this culture was quantified using OD600nm values. […]

CC1(C)S[C@@H]2[C@H](NC(=O)[C@H](N)c3ccccc3)C(=O)N2[C@H]1C(=O)O [ampicillin]
distinction of antibiotic and no antibiotic samples by DNA levels (E. coli [1]; 60 min incubation, FIG. 10 table 2): did not distinguish antibiotic and no antibiotic samples | difference in Ct between ampicillin exposed and unexposed, samples not exposed to EMA+blue light (E. coli [1]; up to 30 mins, no EMA, FIG. 14 table 2): did not show any difference | detection of ampicillin susceptibility by RNA levels (E. coli [2]): able to detect for ampicillin susceptibility at 60 minutes | effect of including EMA on the difference in cycle threshold values between first (ampicillin) and second (no ampicillin) portion (E. coli [3]; FIG. 4, graph 402 (ampicillin and EMA) vs graph 401 (ampicillin only)): improves the difference in the cycle threshold values | difference in Ct between ampicillin exposed and unexposed, samples exposed to EMA (E. coli [3]; ampicillin-susceptible E. coli, 1×10^6 cells/mL, ampicillin 100 μg/mL, 37° C., within 30 minutes, EMA + blue LED light, FIG. 14 table 1): large difference in Ct

Reference: patent US20250354223A1, “METHODS AND KITS FOR D[…] SUSCEPTIBILITY” (Siemens Healthcare Diagnostics Inc., priority 2022, published 2025)
